We go through eight molecules from DBAASP.

Test systems include Escherichia coli ML-35p; Fusarium oxysporum; Fusarium solani; Ramulariopsis gossypii; Rhizoctonia solani; Trichoderma asperellum; Aeromonas hydrophila; Escherichia coli; Staphylococcus aureus; Streptococcus pyogenes; Vibrio alginolyticus; Vibrio fluvialis; Vibrio parahaemolyticus.
Test in all cases: ≥ marks a high value that may be exact or a test limit, other limits are often not marked, values filed in µg/mL are converted to µM
Assay [1] has as its system Streptococcus gordonii ATCC 10558.
Assay [2] concerns Streptococcus mutans GS-5.
In assay [3] the test system is Streptococcus mutans UA159.
Assay [4] has as its system Streptococcus sanguinis ATCC 49295.
Assay [5] has as its system Klebsiella pneumoniae MTCC 443.
Assay [6] deals with Pseudomonas aeruginosa MTCC 2488.
The subject of assay [7] is Staphylococcus aureus MTCC 96.
Assay [8] concerns Acinetobacter baumannii KCTC 2508.
The test system of assay [9] is Klebsiella pneumoniae KCTC 2208.
In assay [10] the test system is Pseudomonas aeruginosa ATCC 27853.
Assay [11] has as its system Enterococcus faecalis ATCC 29212.
The test system of assay [12] is Escherichia coli ATCC 25922.
The test system of assay [13] is Staphylococcus aureus ATCC 25923.
For assay [14], the system named is Staphylococcus aureus ATCC BAA-44.
Assay [15] relates to Bacillus cereus ATCC 14579.
Assay [16] relates to Bacillus subtilis ATCC 23857.
The test system of assay [17] is Candida albicans ATCC 90028.
Assay [18] deals with Cryptococcus neoformans ATCC 28957.
Assay [19] has as its system Fusarium oxysporum f.sp. vasinfectum.
Assay [20] deals with Pectobacterium carotovorum.
In assay [21] the test system is Pseudomonas syringae pv. tabaci.
Assay [22] concerns Xanthomonas campestris pv. citri.
The test system of assay [23] is Candida albicans NCPF 1467.
Assay [24] concerns Escherichia coli NCTC 10418.
In assay [25] the test system is Staphylococcus aureus ATCC 12493.
Assay [26] concerns Staphylococcus aureus NCTC 10788.
Assay [27] concerns Candida albicans NCTC 3179.

In brackets after ≈: the same amount, converted by molar mass. Where only a bound is given, the exact number is not on record here.

For orientation: MIC means the lowest concentration found to suppress growth. Lower therefore signals inhibition by little substance. Take `CC(C)C[C@H](NC(=O)[C@H](CCCN=C(N)N)NC(=O)[C@H](Cc1ccccc1)NC(=O)[C@H](Cc1ccccc1)NC(=O)[C@@H](NC(=O)[C@H](CO)NC(=O)[C@@H](N)CC(C)C)[C@@H](C)O)C(=O)N[C@@H](Cc1ccccc1)C(=O)N[C@@H](CC(N)=O)C(=O)O` [LSTFFRLFN]: the minimal inhibitory concentration (MIC) in assay [1], in assay [2], in assay [3] and in assay [4] was not below 224 µM in each case.

As to `CC(C)C[C@H](NC(=O)[C@H](CCCCN)NC(=O)[C@H](CCCCN)NC(=O)[C@H](CC(C)C)NC(=O)[C@H](Cc1c[nH]c2ccccc12)NC(=O)[C@H](CCCCN)NC(=O)[C@@H](N)CC(C)C)C(N)=O` [LKWLKKL], the MIC in assay [5] is not below 50 µM; in [6], 30 µM (≈ 27.8 µg/mL); in assay [7] it was not below 80 µM.

Take `CC[C@H](C)[C@H](N)C(=O)N[C@@H](C)C(=O)N[C@@H](CCCN=C(N)N)C(=O)N[C@@H](CCCN=C(N)N)C(=O)N[C@@H](C)C(=O)N[C@@H](CC(C)C)C(=O)N[C@@H](CCCCN)C(=O)N[C@@H](CCCCN)C(=O)N[C@@H](C)C(=O)N[C@@H](CCCCN)C(=O)N[C@@H](CCCN=C(N)N)C(=O)N[C@@H](C)C(=O)N[C@@H](CCCN=C(N)N)C(=O)N[C@@H](Cc1cnc[nH]1)C(=O)N[C@H](C(=O)N[C@H](C(=O)N1CCC[C@H]1C(=O)N[C@@H](CCC(N)=O)C(=O)N[C@@H](CS)C(=O)N[C@@H](CCCCN)C(=O)N[C@@H](CCCCN)C(=O)N[C@@H](Cc1ccccc1)C(=O)NCC(=O)N[C@@H](CCCN=C(N)N)C(=O)N[C@@H](CCCN=C(N)N)C(N)=O)[C@@H](C)CC)[C@@H](C)O` [IARRALKKAKRARHTIPQCKKFGRR]: the values for the minimal inhibitory concentration (MIC) in assay [8], in assay [9] and in assay [10] were 4 µM (≈ 12 µg/mL), 8 µM (≈ 23.9 µg/mL) and 1 µM (≈ 2.99 µg/mL), respectively.

In the case of `CC[C@H](C)[C@H](NC(=O)[C@H](CCCCN)NC(=O)[C@H](CC(C)C)NC(=O)[C@H](CC(C)C)NC(=O)[C@@H]1CCCN1C(=O)CNC(=O)[C@H](CC(C)C)NC(=O)[C@H](CCCCN)NC(=O)CN)C(=O)N[C@@H](C)C(=O)N[C@@H](C)C(=O)N[C@@H](CCCCN)C(=O)N[C@H](C(=O)NCC(=O)N[C@@H](CO)C(=O)N[C@@H](CCCCN)C(=O)N[C@@H](CC(C)C)C(=O)N[C@@H](CC(C)C)C(N)=O)C(C)C` [GKLGPLLKIAAKVGSKLL], the MIC in assay [11] stood at 50 µM (≈ 90.3 µg/mL); in [12], 6.3 µM (≈ 11.4 µg/mL); in the assay on Escherichia coli ML-35p, 1.6 µM (≈ 2.89 µg/mL); in [10] it was 3 µM (≈ 5.42 µg/mL); in assay [13] it was 3 µM (≈ 5.42 µg/mL); in assay [14], 6.3 µM (≈ 11.4 µg/mL).

As for `CSCC[C@H](NC(=O)[C@H](Cc1ccccc1)NC(=O)CNC(=O)[C@H](Cc1cnc[nH]1)NC(=O)[C@H](CC(C)C)NC(=O)[C@H](CO)NC(=O)CN)C(=O)N[C@@H](Cc1ccc(O)cc1)C(=O)N[C@@H](CCCCN)C(=O)N[C@@H](Cc1ccc(O)cc1)C(=O)N[C@@H](CC(C)C)C(=O)N[C@@H](CCCCN)C(=O)N[C@H](C(=O)N[C@@H](CC(C)C)C(=O)N[C@H](C(=O)N[C@@H](CC(C)C)C(=O)N[C@@H](CCCN=C(N)N)C(=O)N[C@@H](CC(C)C)C(=O)N[C@@H](Cc1ccc(O)cc1)C(N)=O)C(C)C)[C@@H](C)O` [GSLHGFMYKYLKTLVLRLY], the MIC was not below 64 µM in assay [15]; 8 µM (≈ 18.4 µg/mL) in assay [16]; 6.67 µM (≈ 15.4 µg/mL) in [17]; 4 µM (≈ 9.21 µg/mL) in assay [18]; 13.3 µM (≈ 30.7 µg/mL) in assay [12]; 10.7 µM (≈ 24.6 µg/mL) in [19]. The minimum inhibitory concentration (MIC) was 16 µM (≈ 36.8 µg/mL) in the assay on Fusarium oxysporum; 4 µM (≈ 9.21 µg/mL) against Fusarium solani; 16 µM (≈ 36.8 µg/mL) in assay [20]; 16 µM (≈ 36.8 µg/mL) in [10]; not below 32 µM in assay [21]; 2 µM (≈ 4.6 µg/mL) in the assay on Ramulariopsis gossypii. Besides, the MIC against Rhizoctonia solani was not below 32 µM; in assay [13] it was 16 µM (≈ 36.8 µg/mL); in the assay with Trichoderma asperellum, 16 µM (≈ 36.8 µg/mL); in [22], 16 µM (≈ 36.8 µg/mL).

`CC(C)C[C@H](NC(=O)[C@H](CC(C)C)NC(=O)[C@H](CC(C)C)NC(=O)[C@@H]1CCCN1C(=O)[C@H](CC(C)C)NC(=O)[C@@H](N)Cc1ccccc1)C(=O)N[C@@H](C)C(=O)NCC(=O)N[C@@H](CC(C)C)C(=O)N1CCC[C@H]1C(=O)N[C@@H](CO)C(=O)N[C@@H](Cc1ccccc1)C(=O)N[C@@H](CC(C)C)C(=O)N[C@H]1CSSC[C@@H](C(=O)O)NC(=O)[C@H](CCCCN)NC(=O)[C@H](CCCCN)NC(=O)[C@H](Cc2ccccc2)NC(=O)[C@H](C(C)C)NC(=O)[C@H](CC(C)C)NC1=O` [FLPLLLAGLPSFLCLVFKKC]: the MIC in assay [23] was not below 512 µM; in assay [24] it was not below 512 µM; in [25], not below 512 µM; in assay [26], not below 128 µM.

For `CC[C@H](C)[C@H](NC(=O)[C@@H]1CCCN1C(=O)CNC(=O)[C@H](CO)NC(=O)[C@H](CO)NC(=O)[C@@H](NC(=O)[C@H](C)NC(=O)[C@H](CCC(N)=O)NC(=O)[C@H](Cc1ccccc1)NC(=O)[C@H](CCCN=C(N)N)NC(=O)[C@H](CC(C)C)NC(=O)[C@H](CC(C)C)NC(=O)[C@H](CC(C)C)NC(=O)[C@H](CCC(=O)O)NC(=O)[C@H](CCC(=O)O)NC(=O)[C@H](CO)NC(=O)[C@H](C)N)[C@@H](C)O)C(=O)N[C@@H](CC(C)C)C(=O)N[C@@H](CCCN=C(N)N)C(=O)N[C@@H](CCC(=O)O)C(=O)N[C@@H](CCC(=O)O)C(=O)N[C@@H](Cc1ccccc1)C(=O)N[C@@H](CCC(=O)O)C(=O)O` [ASEELLLRFQATSSGPILREEFE], the MIC in [27] was not below 95.3 µM; in [12] it was more than 95.3 µM; in [13], more than 95.3 µM.

Take `CC(C)C[C@H](NC(=O)[C@H](CCCCN)NC(=O)[C@H](CCC(N)=O)NC(=O)[C@@H](NC(=O)[C@H](C)NC(=O)[C@H](CCC(=O)O)NC(=O)CNC(=O)CN)C(C)C)C(=O)N[C@H](C(=O)N[C@@H](CCCN=C(N)N)C(=O)N[C@@H](CCC(=O)O)C(=O)N[C@H](C(=O)N[C@@H](CCCCN)C(=O)N[C@@H](CC(=O)O)C(=O)NCC(=O)O)C(C)C)C(C)C` [GGEAVQKLVREVKDG]: the MIC in the assay on Aeromonas hydrophila was not below 158 µM; in the assay on Escherichia coli, more than 158 µM; against Staphylococcus aureus, more than 158 µM; against Streptococcus pyogenes it was not below 158 µM; against Vibrio alginolyticus, not below 78.9 µM; in the assay on Vibrio fluvialis, not below 78.9 µM. This molecule also returned an MIC in the assay with Vibrio parahaemolyticus not below 158 µM.
